Legend:
[1] = Ultraviolet induced erythema in guinea pigs; format: in vivo, Albino guinea pigs; design: key: sum of 3 sites, each 0 = none, 0.5 = faint, 1.0 = distinct; max 3.0; conditions: maximum 3.0
Experimental: Albino guinea pigs were depilitated on their flanks, the evening before testing, with a standard mixture of barium sulfide and gum acacia. On the morning of the test, groups of four guinea pigs were dosed by gavage one hour prior (-1 hour) to ultraviolet exposure. At 0 hour they were restrained in a plastic container which allows exposure of 3 circular spots. They were then exposed to ultraviolet irradiation from a "Hanovia" Kromayer lamp, model 10, for 60 seconds. At one and four hours, the degree of erythema for each of the three sites was assessed according to the following scoring system: 0= no erythema, 0.5=incomplete circle or faint erythema, and 1.0=complete circle of distinct erythema. Thus, the maximum score for each animal was 3.0.

[2] = Adjuvant induced arthritis in rats (Freund's adjuvant); format: in vivo, Royal Hart, Wistar strain rats; conditions: for Dead/Treated At 21 Days: days 0-13
Experimental: Groups of three Royal Hart, Wistar strain rats weighing 200±10 grams each were injected intradermally in the right hind paw with Freund's adjuvant (dried human tubercle bacilli in a mineral oil vehicle) at a dose of 2 mg./kg. of body weight. Test compound was administered orally in a 1.5% starch vehicle at various doses once daily on days 0 through 13 post challenge. Control rats were treated in a similar manner, but given only starch vehicle. On the 14th and 21st day post challenge the diameter of the injected paw (primary lesion) was measured by micrometer caliper. The volume of inflamed paws were estimated from these measurements and the results are expressed as percent inhibition of swelling as compared to controls. At the same time, the other inflamed sites, such as ears, paws and tail (seconday lesions) were observed and each rat was graded as to degree of inflammation and swelling present. The grading is based on a scale of 0 to 24, where 0 represents a complete absence of induced arthritic nodules and 24 represents the maximum degree of inflammation. The mean grade for each treated group is calculated and the effects of each compound are expressed as percent inhibition of the control grade. Table I records the results of tests conducted with a typical compound of the present invention and known anti-inflammatory agents.

[3] = Carrageenin induced paw edema in rats (acute anti-inflammatory activity); format: in vivo, Royal Hart, Wistar strain rats; conditions: 250 mg./kg. by gavage; 5 hours after drug (4 hours after carrageenin); ratio greater than 1.41 is active
Experimental: In determining the acute anti-inflammatory activity of the cis-2-benzoyl-3-hydroxy-2-alkenonitriles of the present invention, Royal Hart, Wistar strain rats, ranging in weight from 80 to 90 grams were used. The rats were fasted overnight prior to dosing but had free access to water. The test compounds were administered in aqueous suspension, by gavage, in a volume of 1.7 ml. per 50 grams of rat [corresponds to hydration volume used by Winter, et al., Proc. Soc. […] The phlogistic agent used was carrageenin prepared as a sterile 1% suspension in 0.9% aqueous sodium chloride for routine testing. A volume of 0.05 ml. was injected through a 26 gauge needle into the plantar tissue of the right hind paw. Measurements were made 5 hours after drug administration (4 hours after carrageenin challenge). Volumes of both the normal and carrageenin inflammed feet were determined. The difference between the two measurements is considered to be the increased edema due to the carrageenin administration.

[4] = S. Wong et al. (1973); G. R. Bobalick et al. (1974); cited from earlier work

CCCCC1C(=O)N(c2ccccc2)N(c2ccccc2)C1=O [Phenylbutazone]
Erythema Score (avg.) ([1]; oral 7.8 mg./kg., 1 hour): 1.1 | Erythema Score (avg.) ([1]; oral 7.8 mg./kg., 4 hours): 2.9 | Erythema Score (avg.) ([1]; oral 15.6 mg./kg., 1 hour): 0.4 | Erythema Score (avg.) ([1]; oral 15.6 mg./kg., 4 hours): 2.3 | Erythema Score (avg.) ([1]; oral 31.3 mg./kg., 1 hour): 0.4 | Erythema Score (avg.) ([1]; oral 31.3 mg./kg., 4 hours): 1.7 | Erythema Score (avg.) ([1]; oral 62.5 mg./kg., 1 hour): 0.3 | Erythema Score (avg.) ([1]; oral 62.5 mg./kg., 4 hours): 0.9 | Erythema Score (avg.) ([1]; oral 125 mg./kg., 1 hour): 0.1 | Erythema Score (avg.) ([1]; oral 125 mg./kg., 4 hours): 1.1 | Erythema Score (avg.) ([1]; oral 250 mg./kg., 1 hour): 0 | Erythema Score (avg.) ([1]; oral 250 mg./kg., 4 hours): 0.5 | % Inhibition of Control Grade (secondary lesion) ([2]; oral 18.8 mg./kg., Day 14): 4% | % Inhibition of Swelling (primary lesion) ([2]; oral 18.8 mg./kg., Day 14): 31% | Mean Weight Gain ([2]; oral 18.8 mg./kg., Day 14): 50 grams | % Inhibition of Control Grade (secondary lesion) ([2]; oral 18.8 mg./kg., Day 21): 8% | % Inhibition of Swelling (primary lesion) ([2]; oral 18.8 mg./kg., Day 21): 7% | Mean Weight Gain ([2]; oral 18.8 mg./kg., Day 21): 45 grams | Dead/Treated At 21 Days ([2]; oral 18.8 mg./kg.): 2/21 | % Inhibition of Control Grade (secondary lesion) ([2]; oral 37.5 mg./kg., Day 14): 18% | % Inhibition of Swelling (primary lesion) ([2]; oral 37.5 mg./kg., Day 14): 56% | Mean Weight Gain ([2]; oral 37.5 mg./kg., Day 14): 53 grams | % Inhibition of Control Grade (secondary lesion) ([2]; oral 37.5 mg./kg., Day 21): 13% | % Inhibition of Swelling (primary lesion) ([2]; oral 37.5 mg./kg., Day 21): 14% | Mean Weight Gain ([2]; oral 37.5 mg./kg., Day 21): 53 grams | Dead/Treated At 21 Days ([2]; oral 37.5 mg./kg.): 5/39 | % Inhibition of Control Grade (secondary lesion) ([2]; oral 75 mg./kg., Day 14): 27% | % Inhibition of Swelling (primary lesion) ([2]; oral 75 mg./kg., Day 14): 62% | Mean Weight Gain ([2]; oral 75 mg./kg., Day 14): 51 grams | % Inhibition of Control Grade (secondary lesion) ([2]; oral 75 mg./kg., Day 21): 15% | % Inhibition of Swelling (primary lesion) ([2]; oral 75 mg./kg., Day 21): 28% | Mean Weight Gain ([2]; oral 75 mg./kg., Day 21): 50 grams | Dead/Treated At 21 Days ([2]; oral 75 mg./kg.): 2/39 | % Inhibition of Control Grade (secondary lesion) ([2]; oral 150 mg./kg., Day 14): 54% | % Inhibition of Swelling (primary lesion) ([2]; oral 150 mg./kg., Day 14): 75% | Mean Weight Gain ([2]; oral 150 mg./kg., Day 14): 40 grams | % Inhibition of Control Grade (secondary lesion) ([2]; oral 150 mg./kg., Day 21): 31% | % Inhibition of Swelling (primary lesion) ([2]; oral 150 mg./kg., Day 21): 44% | Mean Weight Gain ([2]; oral 150 mg./kg., Day 21): 50 grams | Dead/Treated At 21 Days ([2]; oral 150 mg./kg.): 2/27 | C/T Edema Ratio [3]: 2.3

COc1ccc2c(c1)c(CC(=O)O)c(C)n2C(=O)c1ccc(Cl)cc1 [Indomethacin]
arthritic paw swelling [4]: inhibit arthritic paw swelling | joint and bone deterioration [4]: prevent joint and bone deterioration | Erythema Score (avg.) ([1]; oral 3.9 mg./kg., 1 hour): 1.2 | Erythema Score (avg.) ([1]; oral 3.9 mg./kg., 4 hours): 2.9 | Erythema Score (avg.) ([1]; oral 7.8 mg./kg., 1 hour): 0.6 | Erythema Score (avg.) ([1]; oral 7.8 mg./kg., 4 hours): 2.3 | Erythema Score (avg.) ([1]; oral 15.6 mg./kg., 1 hour): 0 | Erythema Score (avg.) ([1]; oral 15.6 mg./kg., 4 hours): 2.0 | Erythema Score (avg.) ([1]; oral 31.3 mg./kg., 1 hour): 0.1 | Erythema Score (avg.) ([1]; oral 31.3 mg./kg., 4 hours): 1.9 | Erythema Score (avg.) ([1]; oral 62.5 mg./kg., 1 hour): 0 | Erythema Score (avg.) ([1]; oral 62.5 mg./kg., 4 hours): 1.3 | Erythema Score (avg.) ([1]; oral 125 mg./kg., 1 hour): 0 | Erythema Score (avg.) ([1]; oral 125 mg./kg., 4 hours): 1.3 | Erythema Score (avg.) ([1]; oral 250 mg./kg., 1 hour): 0 | Erythema Score (avg.) ([1]; oral 250 mg./kg., 4 hours): 1.0 | % Inhibition of Control Grade (secondary lesion) ([2]; oral 0.25 mg./kg., Day 14): 22% | % Inhibition of Swelling (primary lesion) ([2]; oral 0.25 mg./kg., Day 14): 30% | Mean Weight Gain ([2]; oral 0.25 mg./kg., Day 14): 51 grams | % Inhibition of Control Grade (secondary lesion) ([2]; oral 0.25 mg./kg., Day 21): 4% | % Inhibition of Swelling (primary lesion) ([2]; oral 0.25 mg./kg., Day 21): 4% | Mean Weight Gain ([2]; oral 0.25 mg./kg., Day 21): 57 grams | Dead/Treated At 21 Days ([2]; oral 0.25 mg./kg.): 0/9 | % Inhibition of Control Grade (secondary lesion) ([2]; oral 0.5 mg./kg., Day 14): 25% | % Inhibition of Swelling (primary lesion) ([2]; oral 0.5 mg./kg., Day 14): 40% | Mean Weight Gain ([2]; oral 0.5 mg./kg., Day 14): 53 grams | % Inhibition of Control Grade (secondary lesion) ([2]; oral 0.5 mg./kg., Day 21): 17% | % Inhibition of Swelling (primary lesion) ([2]; oral 0.5 mg./kg., Day 21): 20% | Mean Weight Gain ([2]; oral 0.5 mg./kg., Day 21): 51 grams | Dead/Treated At 21 Days ([2]; oral 0.5 mg./kg.): 5/54 | % Inhibition of Control Grade (secondary lesion) ([2]; oral 1 mg./kg., Day 14): 34% | % Inhibition of Swelling (primary lesion) ([2]; oral 1 mg./kg., Day 14): 46% | Mean Weight Gain ([2]; oral 1 mg./kg., Day 14): 63 grams | % Inhibition of Control Grade (secondary lesion) ([2]; oral 1 mg./kg., Day 21): 20% | % Inhibition of Swelling (primary lesion) ([2]; oral 1 mg./kg., Day 21): 19% | Mean Weight Gain ([2]; oral 1 mg./kg., Day 21): 65 grams | Dead/Treated At 21 Days ([2]; oral 1 mg./kg.): 9/54 | % Inhibition of Control Grade (secondary lesion) ([2]; oral 2 mg./kg., Day 14): 38% | % Inhibition of Swelling (primary lesion) ([2]; oral 2 mg./kg., Day 14): 51% | Mean Weight Gain ([2]; oral 2 mg./kg., Day 14): 68 grams | % Inhibition of Control Grade (secondary lesion) ([2]; oral 2 mg./kg., Day 21): 25% | % Inhibition of Swelling (primary lesion) ([2]; oral 2 mg./kg., Day 21): 24% | Mean Weight Gain ([2]; oral 2 mg./kg., Day 21): 68 grams | Dead/Treated At 21 Days ([2]; oral 2 mg./kg.): 8/57 | C/T Edema Ratio [3]: 2.9

Source: US4170656A, “Compositions containing cis-2-benzoyl-3-hydroxy-crotononitrile used to treat inflammation and joint deterioration” (priority 1978, dated 1979)
